Columns and labels:
Details in all cases: substance alone 0.5% w/w
S. aureus [1] = assay: Preservative efficacy test (Ph. Eur., adjusted inoculum) in O/W anionic emulsion; format: cell-based, Staphylococcus aureus
Protocol: (§1) Material was tested in predesigned standardised cosmetic formulations either as oil-in-water anionic emulsion (Table 2), shampoo (Table 3), or wet wipe solution (Table 4). The antimicrobial actives were dissolved or mixed with the standardised cosmetic formulations, leading to the indicated test concentrations (in w/w %, cf. […] To determine synergistic indices, raw values for bacterial of fungal colony counts were used. [table] […] Steinberg D. C. (2000): Measuring Synergy. In Cosmetics & Toiletries, 115) was used: […]

E. coli [2] = assay: as above; format: cell-based, Escherichia coli
Protocol: as §1

P. aeruginosa = assay: Preservative efficacy test (Ph. Eur., adjusted inoculum) in shampoo formulation; format: cell-based, Pseudomonas aeruginosa
Protocol: (§2) Preservative efficacy tests were performed according to the European Pharmacopoeia with adjusted inoculation numbers (10^6-10^7 cells of suitable bacteria or fungi). Material was tested in predesigned standardised cosmetic formulations either as oil-in-water anionic emulsion (Table 2), shampoo (Table 3), or wet wipe solution (Table 4). The antimicrobial actives were dissolved or mixed with the standardised cosmetic formulations, leading to the indicated test concentrations (in w/w %, cf. Tables 5 to 12 below). To determine synergistic indices, raw values for bacterial of fungal colony counts were used.
(§3) [formula] • where • SI is the synergism index according to Kull • CA is the cell count for substance A (also “count A”) • CB is the cell count for substance B (also “count B”) • Cmixture is the cell count for the mixture of substance A and B (also “count mix”) • PA is the proportion of the substance A in the mixture in relation to the concentration tested alone • PB is the proportion of the substance B in the mixture in relation to the concentration tested alone

C. albicans = assay: as above; format: cell-based, Candida albicans
Protocol: as §2, §3

E. coli [3] = assay: as above; format: cell-based, Escherichia coli
Protocol: as §2
(§4) To calculate the synergism between the indicated antimicrobial actives (cf. preservative efficacy tests below), the Kull equation (Kull et al., Applied Microbiology 1961, 9 (6), pp. 538-541, DOI: 10.1128/am.9.6.538-541.1961.; Steinberg D. C. (2000): Measuring Synergy. In Cosmetics & Toiletries, 115) was used:
as §3

S. aureus [4] = assay: as above; format: cell-based, Staphylococcus aureus
Protocol: as §2, §4, §3

A. brasiliensis = assay: as above; format: cell-based, Aspergillus brasiliensis
Protocol: as §2, §3

CCCCCCCC(=O)OCCCO [3-Hydroxypropyl caprylate, 3-hydroxypropyl caprylate]
Absolute cell counts 2 days (S. aureus [1]; 2 days): 2.10E+05 | Relative cell counts 2 days (S. aureus [1]; 2 days): 0.0382 | Absolute cell counts 7 days (S. aureus [1]; 7 days): 1.80E+02 | Relative cell counts 7 days (S. aureus [1]; 7 days): 0.0000 | Absolute cell counts 14 days (S. aureus [1]; 14 days): 1 | Relative cell counts 14 days (S. aureus [1]; 14 days): 0.0000 | Absolute cell counts 28 days (S. aureus [1]; 28 days): 1 | Relative cell counts 28 days (S. aureus [1]; 28 days): 0.0000 | Absolute cell counts 2 days (E. coli [2]; 2 days): 3.30E+06 | Relative cell counts 2 days (E. coli [2]; 2 days): 0.9706 | Absolute cell counts 7 days (E. coli [2]; 7 days): 2.60E+04 | Relative cell counts 7 days (E. coli [2]; 7 days): 0.0076 | Absolute cell counts 14 days (E. coli [2]; 14 days): 1 | Relative cell counts 14 days (E. coli [2]; 14 days): 0.0000 | Absolute cell counts 28 days (E. coli [2]; 28 days): 1 | Relative cell counts 28 days (E. coli [2]; 28 days): 0.0000 | Absolute cell counts 2 days (P. aeruginosa; 2 days): 9.30E+04 | Relative cell counts 2 days (P. aeruginosa; 2 days): 0.0211 | Absolute cell counts 7 days (P. aeruginosa; 7 days): 9.50E+02 | Relative cell counts 7 days (P. aeruginosa; 7 days): 0.0002 | Absolute cell counts 14 days (P. aeruginosa; 14 days): 1 | Relative cell counts 14 days (P. aeruginosa; 14 days): 0.0000 | Absolute cell counts 28 days (P. aeruginosa; 28 days): 1 | Relative cell counts 28 days (P. aeruginosa; 28 days): 0.0000 | Absolute cell counts 2 days (C. albicans; 2 days): 2.10E+03 | Relative cell counts 2 days (C. albicans; 2 days): 0.0010 | Absolute cell counts 7 days (C. albicans; 7 days): 1 | Relative cell counts 7 days (C. albicans; 7 days): 0.0000 | Absolute cell counts 14 days (C. albicans; 14 days): 1 | Relative cell counts 14 days (C. albicans; 14 days): 0.0000 | Absolute cell counts 28 days (C. albicans; 28 days): 1 | Relative cell counts 28 days (C. albicans; 28 days): 0.0000 | Absolute cell counts 2 days (E. coli [3]; 2 days): 1.80E+06 | Relative cell counts 2 days (E. coli [3]; 2 days): 0.5806 | Absolute cell counts 7 days (E. coli [3]; 7 days): 2.00E+06 | Relative cell counts 7 days (E. coli [3]; 7 days): 0.6452 | Absolute cell counts 14 days (E. coli [3]; 14 days): 1.70E+06 | Relative cell counts 14 days (E. coli [3]; 14 days): 0.5484 | Absolute cell counts 28 days (E. coli [3]; 28 days): 1.10E+06 | Relative cell counts 28 days (E. coli [3]; 28 days): 0.3548 | Absolute cell counts 2 days (S. aureus [4]; 2 days): 1 | Relative cell counts 2 days (S. aureus [4]; 2 days): 0.0000 | Absolute cell counts 7 days (S. aureus [4]; 7 days): 1 | Relative cell counts 7 days (S. aureus [4]; 7 days): 0.0000 | Absolute cell counts 14 days (S. aureus [4]; 14 days): 1 | Relative cell counts 14 days (S. aureus [4]; 14 days): 0.0000 | Absolute cell counts 28 days (S. aureus [4]; 28 days): 1 | Relative cell counts 28 days (S. aureus [4]; 28 days): 0.0000 | Absolute cell counts 2 days (A. brasiliensis; 2 days): 3.00E+06 | Relative cell counts 2 days (A. brasiliensis; 2 days): 0.9091 | Absolute cell counts 7 days (A. brasiliensis; 7 days): 3.80E+06 | Relative cell counts 7 days (A. brasiliensis; 7 days): 1.1515 | Absolute cell counts 14 days (A. brasiliensis; 14 days): 4.50E+06 | Relative cell counts 14 days (A. brasiliensis; 14 days): 1.3636 | Absolute cell counts 28 days (A. brasiliensis; 28 days): 8.10E+05 | Relative cell counts 28 days (A. brasiliensis; 28 days): 0.2455
